pIC50: −log10 of the molar value.
Columns and labels:
cMET = cMET (Homo sapiens, UniProt P08581); assay: Evaluation of inhibitory activity against MET (TR-FRET); assay type: biochemical; details: TR-FRET kinase assay, cMET protein
Protocol: In addition, in order to measure the enzyme activity inhibition for cMET, the evaluation was performed in the same manner as the enzyme activity inhibition measurement experiment for the RON.
(§1) Specifically, the compound was prepared to a concentration of 1 mM with 100% DMSO and was diluted 10 times in a stepwise manner through 3-fold dilution. 2 ul of the compound diluted in a stepwise manner was added to a 96-well-plate containing 48 ul of a 1× kinase reaction buffer (50 mM HEPES (pH 7.4), 0.05% BSA, 0.005% Tween-20, 1 mM DTT, 0.5 mM MnCl2, 20 mM MgCl2).
The cMET protein was diluted to a concentration of 263 nM with a cMET storage buffer (50 mM Tris-HCl (pH 7.5), 150 mM NaCl, 0.05% Brij35, 1 mM DTT, 10% Glycerol), and then diluted again to a concentration of 2 nM with a 1× kinase reaction buffer. As a substrate cocktail, a MET-specific substrate mixture (5 uM TK peptide, […]) at a concentration 2 times the final reaction concentration.
(§2) Thereafter, a 384-well-plate was prepared, and 2.5 μl of each of the diluted compounds of Examples was added to a corresponding well of experimental group wells, and 2.5 μl of a 4% DMSO solution was dispensed into high control wells and low control wells.
(§3) Thereafter, 2.5 μL of 2 nM cMET was dispensed into the high control wells and the experimental group wells, and 2.5 μL of a 1× kinase reaction buffer was added to the low control wells, and the RON and the reaction buffer were centrifuged at room temperature for 40 seconds at 1000 RPM, and then incubated at room temperature for 20 to 30 minutes. Then, 5 uL of a substrate cocktail (2×) was dispensed into all wells, centrifuged at room temperature for 40 seconds at 1000 RPM, and then incubated at room temperature for 60 minutes. Thereafter, 5 uL of 90 mM EDTA was added to all wells to terminate the reaction, and then incubated again at room temperature for 5 minutes. Thereafter, 5 uL of a 4× phosphotyrosine antibody (Perkin Elmer) containing europium was added to all wells, and then incubated at room temperature for 60 minutes. After the incubation, the 384-well-plate was read with a Vison plate reader. At this time, the excitation wavelength was 340 nm, and the emission wavelength was 620 nm and 665 nm. The 1050 value of the compound of each Example was derived using the GraphPd Prism7 program.

RON = RON (Homo sapiens, UniProt Q04912); assay: Evaluation of inhibitory activity against RON (TR-FRET); assay type: biochemical; details: TR-FRET kinase assay, RON protein
Protocol: In order to measure the inhibitory activity of each of the compounds of Examples against RON, the IC50 of each of the compounds was measured using a Time-Resolved Fluorescence Energy Transfer Chemistry (TR-FRET).
as §1, with “a 1×kinase” for “a 1× kinase”, “7.4), 0.01%” for “7.4), 0.05% BSA, 0.005%”, “Tween-20, 5” for “Tween-20, 1”, “mM Na3VO4, 2 mM EGTA, 10” for “mM MnCl2, 20”
The RON protein was diluted to a concentration of 49.3 nM with an RON storage buffer (50 mM Tris-HCl (pH 7.5), 150 mM NaCl, 0.5 mM EDTA, 0.02% Triton X-100), and then diluted again to a concentration of 0.4 nM with a 1×kinase reaction buffer. As a substrate cocktail, a RON-specific substrate mixture (40 uM ULight-labeled Poly GT, 100 nM ATP) at a concentration 2 times the final reaction concentration.
as §2
as §3, with “of 0.4” for “of 2”, “nM RON” for “nM cMET”, “of 30” for “of 90”, “The IC50” for “The 1050”

RON, sequence (Q04912 25-1400, species assumed): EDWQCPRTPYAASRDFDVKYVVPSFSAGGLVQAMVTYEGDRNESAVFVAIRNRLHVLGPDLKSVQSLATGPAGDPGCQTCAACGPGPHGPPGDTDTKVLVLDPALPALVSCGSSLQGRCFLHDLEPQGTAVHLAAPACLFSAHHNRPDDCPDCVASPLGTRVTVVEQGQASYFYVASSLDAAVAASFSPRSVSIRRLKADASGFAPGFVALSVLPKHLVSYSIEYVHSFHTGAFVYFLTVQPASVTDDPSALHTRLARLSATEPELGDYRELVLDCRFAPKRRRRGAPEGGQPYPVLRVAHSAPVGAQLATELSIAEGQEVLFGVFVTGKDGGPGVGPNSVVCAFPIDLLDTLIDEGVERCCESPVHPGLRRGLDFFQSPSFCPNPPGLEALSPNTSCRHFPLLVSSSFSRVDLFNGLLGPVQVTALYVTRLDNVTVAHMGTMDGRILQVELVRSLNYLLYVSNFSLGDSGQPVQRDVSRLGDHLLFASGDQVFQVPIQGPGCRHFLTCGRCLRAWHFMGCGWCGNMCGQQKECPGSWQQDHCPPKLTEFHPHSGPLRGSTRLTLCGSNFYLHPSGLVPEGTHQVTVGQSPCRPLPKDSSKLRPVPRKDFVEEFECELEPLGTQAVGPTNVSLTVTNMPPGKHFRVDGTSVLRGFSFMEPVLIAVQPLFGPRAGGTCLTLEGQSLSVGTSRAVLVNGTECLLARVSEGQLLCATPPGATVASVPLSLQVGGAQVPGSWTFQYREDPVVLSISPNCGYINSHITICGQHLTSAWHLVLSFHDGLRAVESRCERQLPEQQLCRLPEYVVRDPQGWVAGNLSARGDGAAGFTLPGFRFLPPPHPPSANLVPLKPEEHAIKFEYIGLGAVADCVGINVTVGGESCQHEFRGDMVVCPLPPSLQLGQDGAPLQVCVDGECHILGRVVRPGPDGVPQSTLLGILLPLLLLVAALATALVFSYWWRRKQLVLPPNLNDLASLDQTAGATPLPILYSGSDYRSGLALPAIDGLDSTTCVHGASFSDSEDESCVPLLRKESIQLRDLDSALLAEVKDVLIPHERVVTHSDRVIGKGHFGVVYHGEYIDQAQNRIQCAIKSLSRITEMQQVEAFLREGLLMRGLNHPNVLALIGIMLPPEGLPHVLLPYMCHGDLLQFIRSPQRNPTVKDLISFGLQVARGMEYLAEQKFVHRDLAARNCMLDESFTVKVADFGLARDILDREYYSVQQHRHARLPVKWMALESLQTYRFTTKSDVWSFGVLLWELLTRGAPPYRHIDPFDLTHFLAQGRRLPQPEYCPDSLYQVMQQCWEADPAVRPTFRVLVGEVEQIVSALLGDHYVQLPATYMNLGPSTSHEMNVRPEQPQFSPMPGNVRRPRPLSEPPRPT
cMET, sequence (P08581 25-1390): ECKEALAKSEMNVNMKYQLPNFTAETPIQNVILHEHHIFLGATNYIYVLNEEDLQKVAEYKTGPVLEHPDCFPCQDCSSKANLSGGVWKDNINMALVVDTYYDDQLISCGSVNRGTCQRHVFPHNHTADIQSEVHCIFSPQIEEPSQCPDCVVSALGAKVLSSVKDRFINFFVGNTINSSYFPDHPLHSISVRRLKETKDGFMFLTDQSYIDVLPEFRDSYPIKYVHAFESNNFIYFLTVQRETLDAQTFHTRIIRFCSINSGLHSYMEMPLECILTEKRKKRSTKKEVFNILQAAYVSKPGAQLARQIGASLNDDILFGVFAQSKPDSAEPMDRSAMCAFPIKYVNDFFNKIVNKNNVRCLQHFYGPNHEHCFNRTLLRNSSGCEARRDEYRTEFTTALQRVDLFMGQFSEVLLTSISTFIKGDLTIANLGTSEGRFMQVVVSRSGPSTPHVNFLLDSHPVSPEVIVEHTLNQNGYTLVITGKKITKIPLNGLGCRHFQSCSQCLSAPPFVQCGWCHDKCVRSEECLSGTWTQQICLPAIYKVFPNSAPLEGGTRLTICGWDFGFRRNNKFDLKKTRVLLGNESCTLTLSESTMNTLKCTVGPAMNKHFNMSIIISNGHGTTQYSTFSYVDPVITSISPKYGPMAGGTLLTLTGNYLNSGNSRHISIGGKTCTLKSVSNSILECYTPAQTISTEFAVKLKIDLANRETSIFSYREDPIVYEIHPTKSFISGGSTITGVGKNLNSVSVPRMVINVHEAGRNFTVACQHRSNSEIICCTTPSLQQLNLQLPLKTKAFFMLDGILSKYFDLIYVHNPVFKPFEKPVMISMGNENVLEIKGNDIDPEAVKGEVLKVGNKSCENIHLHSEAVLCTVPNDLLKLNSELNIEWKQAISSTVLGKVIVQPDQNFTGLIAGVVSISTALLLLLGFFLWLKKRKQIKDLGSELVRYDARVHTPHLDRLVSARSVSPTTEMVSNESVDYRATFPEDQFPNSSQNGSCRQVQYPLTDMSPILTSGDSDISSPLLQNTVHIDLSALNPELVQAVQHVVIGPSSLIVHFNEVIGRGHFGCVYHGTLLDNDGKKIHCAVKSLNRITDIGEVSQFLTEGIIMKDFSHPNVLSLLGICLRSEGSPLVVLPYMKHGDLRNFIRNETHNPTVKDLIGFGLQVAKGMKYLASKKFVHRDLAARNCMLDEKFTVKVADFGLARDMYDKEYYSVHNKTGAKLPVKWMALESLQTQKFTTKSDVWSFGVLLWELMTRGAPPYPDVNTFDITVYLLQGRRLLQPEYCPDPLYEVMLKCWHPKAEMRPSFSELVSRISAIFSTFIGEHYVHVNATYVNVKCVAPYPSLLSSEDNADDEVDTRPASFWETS

| pIC50 (cMET) | pIC50 (RON) | Compound |
| --- | --- | --- |
| < 5.30 | > 7.30 | CC(C)n1c(=O)[nH]c2nccc(Oc3ccc(NC(=O)c4cnn(-c5cc(Cl)ccn5)c4C(F)(F)F)cc3F)c21 [Example 15, 1-(4-chloropyridine-2-yl)-N-(3-fluoro-4-((1-isopropyl-2-oxo-2,3-dihydro-1H-imidazo[4,5-b]pyridine-7-yl)oxy)phenyl)-5-(trifluoromethyl)-1H-pyrazole-4-carboxamide] |
| 5.30 to 6.30 | > 7.30 | O=C(Nc1ccc(Oc2ccnc3[nH]c(=O)n(C4CCOC4)c23)c(F)c1)c1cnn(-c2ncccc2F)c1C(F)(F)F (stereo not drawn) [Example 40, N-(3-fluoro-4-((2-oxo-1-(tetrahydrofuran-3-yl)-2,3-dihydro-1H-imidazo[4,5-b]pyridine-7-yl)oxy)phenyl)-1-(3-fluoropyridine-2-yl)-5-(trifluoromethyl)-1H-pyrazole-4-carboxamide] |
| 5.30 to 6.30 | 6.30 to 7.30 | CC(C)n1c(=O)[nH]c2nccc(Oc3ccc(NC(=O)c4cnn(-c5cc(C6CC6)ccn5)c4C(F)(F)F)cc3F)c21 [Example 31, 1-(4-cyclopropylpyridine-2-yl)-N-(3-fluoro-4-((1-isopropyl-2-oxo-2,3-dihydro-1H-imidazo[4,5-b]pyridine-7-yl)oxy)phenyl)-5-(trifluoromethyl)-1H-pyrazole-4-carboxamide] |
| < 5.30 | > 7.30 | CC(C)n1c(=O)[nH]c2nccc(Oc3ccc(NC(=O)c4cnn(-c5ccccn5)c4C(F)(F)F)cc3F)c21 [Example 3, N-(3-fluoro-4-((1-isopropyl-2-oxo-2,3-dihydro-1H-imidazo[4,5-b]pyridine-7-yl)oxy)phenyl)-1-(pyridine-2-yl)-5-(trifluoromethyl)-1H-pyrazole-4-carboxamide] |
| < 5.30 | > 7.30 | CCc1c(C(=O)Nc2ccc(Oc3ccnc4[nH]c(=O)n(C(C)C)c34)c(F)c2)cnn1-c1cncnc1 [Example 2, 5-ethyl-N-(3-fluoro-4-((1-isopropyl-2-oxo-2,3-dihydro-1H-imidazo[4,5-b]pyridine-7-yl)oxy)phenyl)-1-(pyrimidine-5-yl)-1H-pyrazole-4-carboxamide] |
| < 5.30 | 6.30 to 7.30 | COc1ccc(-n2ncc(C(=O)Nc3ccc(Oc4ccnc5[nH]c(=O)n(C(C)C)c45)c(F)c3)c2C(F)(F)F)nc1 [Example 34, N-(3-fluoro-4-((1-isopropyl-2-oxo-2,3-dihydro-1H-imidazo[4,5-b]pyridine-7-yl)oxy)phenyl)-1-(5-methoxypyridine-2-yl)-5-(trifluoromethyl)-1H-pyrazole-4-carboxamide] |
| 5.30 to 6.30 | 6.30 to 7.30 | CCc1ccnc(-n2ncc(C(=O)Nc3ccc(Oc4ccnc5[nH]c(=O)n(C(C)C)c45)c(F)c3)c2C(F)(F)F)c1 [Example 30, 1-(4-ethylpyridine-2-yl)-N-(3-fluoro-4-((1-isopropyl-2-oxo-2,3-dihydro-1H-imidazo[4,5-b]pyridine-7-yl)oxy)phenyl)-5-(trifluoromethyl)-1H-pyrazole-4-carboxamide] |
| 5.30 to 6.30 | 6.30 to 7.30 | CC(C)n1c(=O)[nH]c2nccc(Oc3ccc(NC(=O)c4cnn(-c5cc(C6=CCOCC6)ccn5)c4C(F)(F)F)cc3F)c21 [Example 32, 1-(4-(3,6-dihydro-2H-pyran-4-yl)pyridine-2-yl)-N-(3-fluoro-4-((1-isopropyl-2-oxo-2,3-dihydro-1H-imidazo[4,5-b]pyridine-7-yl)oxy)phenyl)-5-(trifluoromethyl)-1H-pyrazole-4-carboxamide] |
| < 5.30 | > 7.30 | CN1CCC(n2c(=O)[nH]c3nccc(Oc4ccc(NC(=O)c5cnn(-c6ncccc6F)c5C(F)(F)F)cc4F)c32)CC1 [Example 41, N-(3-fluoro-4-((1-(1-methylpiperidine-4-yl)-2-oxo-2,3-dihydro-1H-imidazo[4,5-b]pyridine-7-yl)oxy)phenyl)-1-(3-fluoropyridine-2-yl)-5-(trifluoromethyl)-1H-pyrazole-4-carboxamide] |

— patent publication US20240317739A1, “NOVEL UREA DERIVATIVE COMPOUND AS RON INHIBITOR” (LG CHEM, LTD., priority 2021, published 2024)
